Read-outs that look alike come from different tables or passages of the source.
What was measured:
lung (NCI-H23) = assay: Cell cytotoxicity assay (MTT), NCI-H23; assay type: cell-based, human; details: read-out: Cell Line IC50 NCI-H23
Protocol: (§1) The anticancer potential of the tetraphenolic dimer (Structure 3) and the tetraacetoxy dimer (Structure 2) was assessed using a panel of human tumour cell lines, including glioma (C6), prostate (PC3), breast (MCF-7), soft tissue (Kym-1) and lung (NCI-H23 and NCI-H460). The cell cytotoxicity assay was conducted as per the method of Alley et al., 1988. Cell lines are exposed to varying concentrations of test compound for a fixed time. At the conclusion of the assay, the viability of the cell population is determined using the hydrogen acceptor reagent 3-(4,5-dimethylthiazol-2-yl)-2,5 diphenyltetrazolium bromide (MTT). The concentration of compound required to inhibit 50% of cell growth in comparison to a control (IC50) is an indicator of effectiveness of the compound. (i.e. the lower the concentration of compound required to inhibit 50% of normal cell proliferation, the more efficacious).

prostate (PC3) = assay: Cell cytotoxicity assay (MTT), PC3; assay type: cell-based, human; details: read-out: Cell Line IC50 PC3
Protocol: as §1

[1] = molecular target: T1, recombinant human estrogen receptor beta (ER-β) (Homo sapiens, UniProt Q92731); assay: Estrogen receptor competitive binding assay (fluorescence polarization kit), ER-β
T1 construct: purchased
T1 sequence (Q92731 whole entry): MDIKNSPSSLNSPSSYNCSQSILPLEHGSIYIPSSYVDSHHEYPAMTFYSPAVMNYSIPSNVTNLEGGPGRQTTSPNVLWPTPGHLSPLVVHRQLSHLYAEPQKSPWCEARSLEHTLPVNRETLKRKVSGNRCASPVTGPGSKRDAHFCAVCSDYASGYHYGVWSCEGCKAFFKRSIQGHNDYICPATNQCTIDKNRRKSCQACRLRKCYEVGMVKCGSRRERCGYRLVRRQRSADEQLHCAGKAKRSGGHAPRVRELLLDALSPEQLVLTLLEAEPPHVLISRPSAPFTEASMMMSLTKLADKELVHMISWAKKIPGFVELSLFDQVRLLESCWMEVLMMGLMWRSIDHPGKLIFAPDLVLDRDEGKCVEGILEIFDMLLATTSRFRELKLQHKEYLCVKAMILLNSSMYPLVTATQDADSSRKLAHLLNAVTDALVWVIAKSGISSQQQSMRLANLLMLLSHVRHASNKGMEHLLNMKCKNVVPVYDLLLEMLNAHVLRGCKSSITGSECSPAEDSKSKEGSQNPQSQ
Protocol: (§2) The ability of the tetraphenolic dimer (Structure 3) and tetraacetoxy dimer (Structure 2) to interact with estrogen receptor alpha and beta was determined using a commercially available estrogen receptor binding kit. This kit employs a competitive binding assay to determine the relative binding affinity of test compounds for recombinant human estrogen receptors-alpha (ER-α) and beta (ER-β). […] The complex is then added to decreasing concentrations of competitor test compounds. The shift in polarization in the presence of test compound is used to determine the relative affinity of test compounds for the estrogen receptor.

breast (MCF-7) = assay: Cell cytotoxicity assay (MTT), MCF-7; assay type: cell-based, human
Protocol: as §1

[2] = molecular target: T2, recombinant human estrogen receptors-alpha (ER-α) (Homo sapiens, UniProt P03372); assay: Estrogen receptor competitive binding assay (fluorescence polarization kit), ER-α
T2 construct: purchased
T2 sequence (P03372 1-595): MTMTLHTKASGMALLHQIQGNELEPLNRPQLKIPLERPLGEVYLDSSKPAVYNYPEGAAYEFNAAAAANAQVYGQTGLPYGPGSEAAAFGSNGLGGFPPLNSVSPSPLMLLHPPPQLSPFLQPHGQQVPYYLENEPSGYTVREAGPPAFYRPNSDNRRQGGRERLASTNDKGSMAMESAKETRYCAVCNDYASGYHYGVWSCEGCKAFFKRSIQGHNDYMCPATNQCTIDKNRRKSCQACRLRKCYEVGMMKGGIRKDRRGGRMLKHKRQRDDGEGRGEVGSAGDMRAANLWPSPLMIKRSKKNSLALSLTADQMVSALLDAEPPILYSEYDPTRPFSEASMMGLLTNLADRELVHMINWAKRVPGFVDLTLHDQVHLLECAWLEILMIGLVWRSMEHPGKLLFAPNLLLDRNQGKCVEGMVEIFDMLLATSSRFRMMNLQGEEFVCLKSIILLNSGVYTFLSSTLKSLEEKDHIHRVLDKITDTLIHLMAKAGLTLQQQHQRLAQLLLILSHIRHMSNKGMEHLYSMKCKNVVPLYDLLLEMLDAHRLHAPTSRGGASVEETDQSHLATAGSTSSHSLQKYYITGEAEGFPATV
Protocol: as §2

glioma (C6) = assay: Cell cytotoxicity assay (MTT), C6 glioma; assay type: cell-based, human; details: Rattus norvegicus, read-out: Cell Line IC50 C6 Glioma
Protocol: as §1

lung (NCI-H460) = assay: Cell cytotoxicity assay (MTT), NCI-H460; assay type: cell-based; details: Homo sapiens, read-out: Cell Line IC50 NCI-H460
Protocol: as §1

soft tissue (Kym-1) = assay: Cell cytotoxicity assay (MTT), Kym-1; assay type: cell-based; details: Homo sapiens, read-out: Cell Line IC50 Kym-1
Protocol: as §1

With `CC(=O)Oc1ccc(C2=Cc3cc(C4c5ccc(OC(C)=O)cc5OCC4c4ccc(OC(C)=O)cc4)c(OC(C)=O)cc3OC2)cc1` (stereo not shown) [Structure 2, Tetraacetoxy 6-(4-(isoflavan-4′,7-diol))-isoflav-3-ene-4′,7-diol] the IC50 (lung (NCI-H23)) was 7.3 µM, the IC50 (prostate (PC3)) was 6 µM and the “binding to ER-β (in words)” value [1] was “did not bind”. The IC50 (breast (MCF-7); read-out: Cell Line IC50 MCF-7) was 10 ± 5 µM and the “binding to ER-α (in words)” value [2] was “did not bind”.
`Oc1ccc(C2=Cc3cc(C4c5ccc(O)cc5OCC4c4ccc(O)cc4)c(O)cc3OC2)cc1` (stereo not shown) [Structure 3, 6-(4-(Isoflavan-4′,7-diol))-isoflav-3-ene-4′,7-diol] gave an IC50 (lung (NCI-H23); Homo sapiens) of 13.5 µM, an IC50 (glioma (C6)) of 17.5 µM and an IC50 (prostate (PC3); Homo sapiens) of 13.5 µM. The EC50 ([1]; read-out: concentration required to displace 50% of bound fluorescent estrogen ligand (EC50), ER-beta) was 0.37 ± 0.05 µM, the IC50 (breast (MCF-7); Homo sapiens, MCF7, read-out: Cell Line IC50 MCF-7) was 18 ± 2 µM and the IC50 (lung (NCI-H460)) was 14.4 µM. The EC50 ([2]; read-out: concentration required to displace 50% of bound fluorescent estrogen ligand (EC50), ER-alpha) was 0.35 ± 0.05 µM and the IC50 (soft tissue (Kym-1)) was 3.2 µM.

Reference: patent publication US7312344B2, “Dimeric isoflavones” (Novogen Research Pty Limited, priority 2001, dated 2007)
